# Laboratory results taken from patent US4070492A, “Propranolol assay” (priority 1977, dated 1978).
# “Also recorded” adds a separate entry of the source.
# How the values were obtained:
# [1] = Disposition of propranolol in rats: serum/blood levels by radioimmunoassay; conditions: rat; for disposition in blood: 1 mg/kg racemic propranolol i.v., in words; for half-life: blood, iv, 1 mg/kg
# [2] = system: heart rate increase caused by isoproterenol; assay: Inhibition by propranolol of heart rate increase caused by isoproterenol in anesthetized rats; type: in vivo; conditions: rat, 1 mg/kg i.v.
# Source text: Increase in heart rate in response to isoproterenol 0.5 g/kg i.v. was compared beforeand at varying time after the administration of propranolol.
# [3] = system: both antisera (against d,l-propranolol and l-propranolol); assay: Competition with 3H-propranolol for binding, results stated once for both antisera; parameters: species or system rabbit; conditions: for recognition / cross-reaction / interference: in words; for inhibition of 3H-propranolol binding: at 100 ng
# Protocol: (§1) New Zealand albino rabbits were immunized with propranolol-BSA immunogens once a week for 4 weeks and then once every 2 to 4 weeks. The immunogen was dissolved in phosphate-buffered saline (pH 7.4)
# (§2) and emulsified with an equal amount of complete Freund's adjuvant. One ml. of emulsion containing 500 μg of immunogen was injected into four foot pads and intramuscularly into both thighs. Bleedings were taken from the central ear artery 6 to 8 days after the third booster injection. Blood was allowed to clot overnight at 4° C. and centrifuged at 2,000 rpm for 15 mintues to separate serum.
# (§3) Antisera were diluted in a 2.5% solution of normal rabbit serum in 1:10 phosphate buffered saline. 0.4 ml. of this mixture was added to the assay tubes (10 × 75 mm). 10 μ1. of unknown or standard solutions were added to the tubes. 0.1 ml. of radioactive, d,l-propranolol solution containing 60 pg. (approximately 2,500 cpm) for antiserum against […] and 120 pg. (approximately 5,000 cpm) for antiserum against l-propranolol was subsequently added. The tubes were incubated overnight at 4° C. Antibody bound propranolol was separated by the addition of 0.5 ml. of saturated ammonium sulfate. The pellet was washed once with 0.8 ml. of 50% saturated ammonium sulfate, then dissolved in 0.5 ml. of water and transferred into a counting vial. The tube was washed twice with 3 ml. of Riafluor. Another portion of 6 ml. Riafluor was added to the vial to give a total volume of 12 ml., and the radioactivity was counted in a scintillation counter. The dilutions of the antisera used were 1:10,000 and 1:1000 respectively against d,l-propranolol and l-propranolol.
# (§4) The sensitivity of radioimmunoassay for d,l-propranolol and its l-isomer in phosphate-buffered saline and serum were determined.
# (§5) ID50 refers to the amount of the compound required to produce 50% inhibition of ^3 H-propranolol-antibody complex formation.
# [4] = system: antiserum against d,l-propranolol; assay: Competition with 3H-propranolol for binding to antiserum against d,l-propranolol (radioimmunoassay specificity); parameters: species or system rabbit; conditions: for inhibition of 3H-propranolol binding: at 100 ng; for recognition by antiserum against d,l-propranolol: d- versus l-propranolol
# Protocol: as §1, §2, §3, §4, §5
# [5] = system: antiserum against l-propranolol; assay: Competition with 3H-propranolol for binding to antiserum against l-propranolol (radioimmunoassay specificity); parameters: species or system rabbit; conditions: for inhibition of 3H-propranolol binding: at 100 ng
# Protocol: as §1, §2, §3, §4, §5
# [6] = rat, in vivo, iv, 1 mg/kg
# [7] = Disposition of propranolol in rats: heart levels by radioimmunoassay; conditions: rat, heart, iv, 1 mg/kg
# rat heart = assay: as above; conditions: 1 mg/kg d,l-propranolol i.v.
# [8] = antiserum against l-propranolol
smiles,measurement,setting,value
CC(C)NCC(O)COc1cccc2ccccc12 (racemic) [propranolol],disposition in blood,[1],declines rapidly in the blood following the injection
same,time by which effect on heart rate disappeared,[2],≤ 90 min
same,suppression of increase in heart rate due to isoproterenol,[2]; first 30 minutes after administration,markedly suppressed
"Oc1ccc(O)c2ccccc12 [1,4-naphthalene-diol]",concentration needed for interference with the assay,[3]; both antisera,"at least 1,000 times greater"
same,inhibition of 3H-propranolol binding,"[4]; anti-d,l-propranolol antiserum",no inhibition
same,inhibition of 3H-propranolol binding,[5]; anti-l-propranolol antiserum,17%
Oc1cccc2ccccc12 [1-naphthol],concentration needed for interference with the assay,[3]; both antisera,"at least 1,000 times greater"
same,inhibition of 3H-propranolol binding,"[4]; anti-d,l-propranolol antiserum",25%
same,inhibition of 3H-propranolol binding,[5]; anti-l-propranolol antiserum,45%
O=C(O)COc1cccc2ccccc12 [1-naphthoxy acetic acid],concentration needed for interference with the assay,[3]; both antisera,"at least 1,000 times greater"
same,inhibition of 3H-propranolol binding,"[4]; anti-d,l-propranolol antiserum",10%
same,inhibition of 3H-propranolol binding,[5]; anti-l-propranolol antiserum,25%
CC(C)NCC(O)COc1ccc(O)c2ccccc12 (stereo not drawn) [4-hydroxy-propranolol],"concentration needed for recognition by the d,l-antibody","[4]; antiserum against d,l-propranolol",≥ 70 times greater
same,concentration needed for recognition by the l-antibody,[5]; [8],≥ 35 times greater
CC(C)NC[C@@H](O)COc1cccc2ccccc12 [d-propranolol],initial blood level relative to l-propranolol,[6],three times higher
same,ID50 and 95% confidence limits,"[4]; anti-d,l-propranolol antiserum, amount for 50% inhibition of 3H-propranolol-antibody complex formation, 95% confidence limits in parentheses",314 pg
same,"recognition by antiserum against d,l-propranolol",[4],to the same degree
same,half-life,[1],23.8 min
same,disposition in blood,[1],remains in the blood and is metabolized rapidly
same,amount of l-form as which 100 pg of the d isomer is recognized by the l-antibody,[5]; 100 pg of d isomer,7 pg
same,ID50 and 95% confidence limits,"[5]; anti-l-propranolol antiserum, amount for 50% inhibition of 3H-propranolol-antibody complex formation, 95% confidence limits in parentheses",1656 pg
same,ID50 relative to that for l-propranolol,[5]; [8],14 times
CC(C)NCC(O)c1ccc(Cl)c(Cl)c1 (stereo not drawn) [dichloroisoproterenol],recognition / cross-reaction / interference,[3]; both antisera,not significant recognized by either antisera
same,inhibition of 3H-propranolol binding,"[4]; anti-d,l-propranolol antiserum",13%
same,inhibition of 3H-propranolol binding,[5]; anti-l-propranolol antiserum,no inhibition
NCCc1ccc(O)c(O)c1 [dopamine],inhibition of 3H-propranolol binding,[3],no inhibition
CNCC(O)c1ccc(O)c(O)c1 (stereo not drawn) [epinephrine],inhibition of 3H-propranolol binding,[3],no inhibition
CC(C)N [isopropylamine],inhibition of 3H-propranolol binding,[3],no inhibition
same,concentration needed for interference with the assay,[3]; both antisera,"at least 1,000 times greater"
CC(C)NCC(O)c1ccc(O)c(O)c1 (stereo not drawn) [isoproterenol],inhibition of 3H-propranolol binding,[3],no inhibition
same,recognition / cross-reaction / interference,[3]; both antisera,no cross-reaction
CC(C)NC[C@H](O)COc1cccc2ccccc12 [l-propranolol],"recognition by antiserum against d,l-propranolol",[4],to the same degree
same,half-life,[1],52 min
same,half-life relative to d-isomer,"[1]; 1 mg/kg d,l-propranolol i.v.",almost twice that of the d-isomer
same,half-life,[7],62 min
same,decline in heart compared with blood,rat heart; after half an hour,almost parallel to that found in the blood
same,heart uptake / presence in heart,"rat heart; in words, 1 mg/kg",rapid accumulation of l-propranolol by the heart; also recorded: stereospecific uptake of l-propranolol by the rat heart; also recorded: only l-propranolol could be found in the heart
same,selectivity of antiserum against l-propranolol,[5]; l-propranolol versus d-isomer,able to discriminate the l-propranolol selectively; also recorded: more selectively than the d-isomer
NCC(O)c1ccc(O)c(O)c1 (stereo not drawn) [norepinephrine],inhibition of 3H-propranolol binding,[3],no inhibition
CC(C)NCC(O)c1ccc2ccccc2c1 (stereo not drawn) [pronethalol],recognition / cross-reaction / interference,[3]; both antisera,not significant recognized by either antisera
same,inhibition of 3H-propranolol binding,"[4]; anti-d,l-propranolol antiserum",45%
"OCC(O)COc1cccc2ccccc12 (stereo not drawn) [propranolol glycol, 1-(1-naphthoxy)-2,3-propylene glycol]","ID50 relative to values for l-propranolol and d,l-propranolol",[3]; both antisera,9-14 times
